# Patent US20230320995A1, “IONIZABLE CATIONIC LIPIDS AND LIPID NANOPARTICLES” (CAPSTAN THERAPEUTICS, INC., priority 2022, published 2023)
# Where two headings read alike, the source gives them in different places.
# How the values were obtained:
# [1] = apparent pKa of ionizable lipid in lipid nanoparticle, TNS assay; type: physicochemical; details: for ΔpKa: difference of calculated and measured pKa; for pKa: TNS assay
# Description: c Log D and c-pKa were calculated as noted above. The measured pKa of a lipid was determined as formulated in a lipid nanoparticle using the TNS assay as described in the following Example.
# The apparent pKa of ionizable lipid in the lipid nanoparticle was determined using 6-(p-toluidino)-2-naphthalenesulfonic acid sodium salt (TNS salt, Toronto Research Chemicals, Toronto, ON, Canada). Lipid nanoparticles were diluted in 1×Dulbecco's PBS to a concentration of 1 mM total lipids. TNS salt was prepared as a 1 mg/mL stock solution in DMSO and then further diluted using distilled water to a working solution of 60 μg/mL ([…]). Diluted lipid nanoparticle samples were further diluted to 90 μM total lipids in 165 μL of buffered solution containing 10 mM HEPES, 10 mM MES, 10 mM ammonium acetate, 130 mM NaCl, and final TNS concentration of 1.33 μg/mL (4 μM) with the pH ranging from 3.5 to 12.2. Following pipette mixing and incubation at room temperature in the dark for 15 min, fluorescence intensity was measured at room temperature in a BioTek Synergy H1 plate reader using excitation and emission wavelengths of 321 and 445 nm, respectively. The fluorescence signal was blank subtracted and plotted as a function of the pH, then analyzed using a nonlinear (Boltzmann) regression analysis with the apparent pKa determined as the pH giving rise to half maximal fluorescence intensity as calculated by the Henderson-Hasselbalch equation.
# [2] = physical-chemical properties of CD5-targeted tLNP encapsulating mCherry mRNA; type: physicochemical; details: for Hydrodynamic diameter: anti-CD5 tLNP: ionizable lipid/DSPC/cholesterol/DMG-PEG 2000/DSPE-PEG2000-Maleimide 50:10:38.5:1.4:0.1
# Source text: CleanCap® mCherry 5-methoxyuridine (5moU) mRNA (L-7203) was purchased from TriLink. mRNA was encapsulated in LNP using a self-assembly process in which an aqueous solution of mRNA at pH=3.5 is rapidly mixed with a solution of lipids dissolved in ethanol, then followed by stepwise phosphate and Tris buffer dilution and TFF purification. LNP composition in this study was: ionizable cationic lipid/distearoylphosphatidylcholine/cholesterol/DMG-PEG 2000/distearoylphosphatidyl ethanolamine(DSPE)-PEG2000-Maleimide (50:10:38.5:1.4:0.1 mol/mol) and were encapsulated at an N/P ratio (the ratio of positively-chargeable […] amine (N=nitrogen) groups to negatively-charged nucleic acid phosphate (P) groups) at 6. The hydrodynamic diameter of the nanoparticles was measured by dynamic light scattering using a Zetasizer Nano ZS (Malvern Instruments Ltd., Malvern, UK) instrument.
# Next, an anti-CD5 mAb was conjugated to the above LNP to generate tLNP. Purified rat anti-mouse CD5 antibody, clone 53-7.3 (BioLegend), was coupled to LNP via N-succinimidyl S-acetylthioacetate (SATA)-maleimide conjugation chemistry. Briefly, LNPs with DSPE-PEG(2000)-maleimide incorporated were formulated and stored at 4° C. on the day of conjugation. The antibody was modified with SATA (Sigma-Aldrich) to introduce sulfhydryl groups at accessible lysine residues allowing conjugation to maleimide. SATA was deprotected using 0.5 M hydroxylamine followed by removal of the unreacted components by G-25 Sephadex Quick Spin Protein columns (Roche Applied Science, Indianapolis, IN). The reactive sulfhydryl group on the antibody was then conjugated to maleimide moieties on the LNPs using thioether conjugation chemistry. Purification was performed using Sepharose CL-4B gel filtration columns (Sigma-Aldrich). tLNPs (LNPs conjugated with a targeting antibody) were frozen at −80° C. Others have conjugated antibody to free functionalized PEG-lipid and then incorporated the conjugated lipid into pre-formed LNP.
# mRNA content was determined using a Quant-iT™ RiboGreen RNA assay kit (Invitrogen™). Encapsulation efficiency was calculated by determining the unencapsulated mRNA content by measuring the fluorescence intensity (Fi) upon the addition of RiboGreen reagent to the LNP and comparing this value to the total fluorescence intensity (Ft) of the RNA content that is obtained upon lysis of the LNPs by 1% Triton X-100, where % encapsulation=(Ft−Fi)/Ft x 100).
# The particle size (hydrodynamic diameter) and polydispersity index of the targeted lipid nanoparticles were determined using dynamic light scattering (DLS) on a Malvern Zetasizer Nano ZS (Malvern Instruments, Worcestershire, UK). Size measurement was carried out in pH 7.4 Tris buffer at 25° C. in relevant disposable capillary cells. A non-invasive back scatter system (NIBS) with a scattering angle of 173° was used for size measurements.
# [3] = system: HEK293F cells; experiment: transfection of HEK293F cells with mCherry mRNA LNP; type: cell-based; details: highest dose tested (2 μg RNA per well), 24 hours
# Description: The ability of the LNP formed in the preceding Example to transfect HEK293F cells, a human embryonic kidney cell-derived cell line, with the mCherry mRNA was assessed. Viral Production Cells (Gibco Catalog number: A35347), a derivative of the HEK 293F cell line adapted to a chemically-defined, serum-free and protein-free medium (LV-MAX™ Production Medium; Gibco Catalog number: A3583401) were grown in suspension, sedimented, resuspended at about 1×10^6 cells/mL, and 200 μL distributed to the wells of a 96-well U-bottom plate. Frozen LNP were thawed and diluted to 100 μg mRNA/mL with sterile water for injection. An appropriate volume of LNP was added to provide 0, 0.3, 0.6, or 2 μg RNA per well in duplicate and mixed by re-pipetting. The cells were then incubated for 1 hour at 37° C. in a CO2 incubator, washed three times with phosphate buffered saline, resuspended in 400 μL of medium in a deep-well 96-well plate, and incubated at 37° C. in a CO2 incubator on an orbital shaker at 900 RPM.
# Twenty-four hours after addition of the LNP to the cells they were stained with Aqua Live/Dead (Thermo: catalog L34965) to assess cell viability. Transfection rate and expression level in the transfected cells was assessed by flow cytometry based on mCherry fluorescence.
# [4] = system: mouse splenic T cells; experiment: targeted transfection of T cells in vivo with CD5-targeted tLNP; details: C57Bl/6 mice, 10 μg via tail vein, spleen at 24 hours
# Description: To assess the performance of tLNP described in Example 35 they were used to transfect mouse T cells by injecting the tLNP into live mice and evaluated for their ability to generate murine T cells that express the mCherry reporter gene in vivo. All tLNP test articles were thawed at room temperature for 30 minutes and then diluted 1:2 with sterile water for injection to achieve a final dose concentration of 100 μg/mL. 100 μL (10 μg) of each test article was then injected via the tail vein into 8-week-old female C57Bl/6 mice. All treated mice were then sacrificed at 24 hours post-treatment and their spleens collected. Each spleen was then dissociated to single cell suspension and stained with antibodies to identify T cells, B cells, monocytes and non-hematopoietic cells. Stained samples were then analyzed by flow cytometry for expression of mCherry in immune cell subsets, and non-hematopoietic cells. Data analysis was performed using FlowJo (Version 10.8.1) and GraphPad Prism (9.4.1.).
# [5] = ionizable lipid in tLNP, read-out: Measured pKa
# [6] = measured, lipid formulated in a lipid nanoparticle, read-out: pKa
"PDI (polydispersity index) ([2]; anti-CD5 tLNP, DLS)","Encapsulation Efficiency ([2]; anti-CD5 tLNP, RiboGreen assay) [%]",Compound,ΔpKa [1],"pKa [1, 5]","pKa [1, 6]",Hydrodynamic diameter ([2]; DLS) [nm],transfection rate [3] [%],level of mCherry expression (MFI) in vivo [4],transfection rate of splenic T cells in vivo [4]
0.20,99,CCCCCCCCCC(=O)OCC(COC(=O)CCCCCCCCC)CC(=O)OCCN(CCOC(=O)CC(COC(=O)CCCCCCCCC)COC(=O)CCCCCCCCC)C(=O)NCCCN(C)C [Compound A-2],1.62,7.92,7.92,105,–,–,–
–,–,CCCCCCCCC(=O)OCC(COC(=O)CCCCCCCC)CC(=O)OCCN(CCOC(=O)CC(COC(=O)CCCCCCCC)COC(=O)CCCCCCCC)C(=O)OCCN(C)C [Compound A-11],1.81,6.65,6 to 7,93,~50,distinctly greater than that achieved with the other tLNP,around 7%
